Data on 2 molecules can be found in patent US20090221665A1, “Organic Compounds” (priority 2005, published 2009).

The test system of the assay is male rats. In words: Fecal pellet output in male rats after i.p. dosing. It is filed as in vivo, rat. The following applies: for fecal pellet output (in words): dosed alone, every 30 mins for 2 hr. As for the experimental part:
Methods: In male rats (200-300 g) fecal pellet output was measured every 30 mins for 2 hr following administration of tegaserod (0.01-1.0 mg/kg i.p.), neostigmine (0.01-0.1 mg/kg i.p.) or a combination of both compounds.

Molecules are shown by their SMILES.

On to `CN(C)C(=O)Oc1cccc([N+](C)(C)C)c1` [Neo, neostigmine], for which the “# Fecal Pellets” value runs as follows: (Neo 0.01 mg/kg i.p. alone, 30 min) 0.67 ± 0.33; (Neo 0.01 mg/kg i.p. alone, 60 min) 1.00 ± 0.58; (Neo 0.01 mg/kg i.p. alone, 90 min) 1.00 ± 0.58; (Neo 0.01 mg/kg i.p. alone, 120 min) 1.33 ± 0.67. For the same molecule, the “fecal pellet output (in words)” value (neostigmine 0.01-0.1 mg/kg i.p.) is “dose and time-dependent increase in fecal pellet output”.

As for `CCCCCNC(=N)N/N=C/c1c[nH]c2ccc(OC)cc12` [Teg, 3-(5-methoxy-1H-indol-3-yl-methylene)-N-pentylcarbazimidamide], the “# Fecal Pellets” value is reported as 0.17 ± 0.17 (Teg 0.01 mg/kg i.p. alone, 30 min); 0.17 ± 0.17 (Teg 0.01 mg/kg i.p. alone, 60 min); 0.33 ± 0.21 (Teg 0.01 mg/kg i.p. alone, 90 min); 1.50 ± 0.62 (Teg 0.01 mg/kg i.p. alone, 120 min); 0.83 ± 0.32 (Teg 0.1 mg/kg i.p. alone, 30 min); 1.25 ± 0.35 (Teg 0.1 mg/kg i.p. alone, 60 min). Further, the “# Fecal Pellets” value (Teg 0.1 mg/kg i.p. alone, 90 min) was 1.50 ± 0.34 and the “# Fecal Pellets” value (Teg 0.1 mg/kg i.p. alone, 120 min) is on record as 1.83 ± 0.39. Also, for the setting “tegaserod 0.01-1.0 mg/kg i.p.”, the “fecal pellet output (in words)” value was “dose and time-dependent increase in fecal pellet output”.
